In PMC12658050 (Scientific Reports, 2025) one finds Kd data, which are given here for one compound.

The assay deals with cyclin B1 (CCNB1) (Homo sapiens, UniProt P14635). Description: SPR. It counts as binding.
cyclin B1 (CCNB1), sequence (P14635 whole entry): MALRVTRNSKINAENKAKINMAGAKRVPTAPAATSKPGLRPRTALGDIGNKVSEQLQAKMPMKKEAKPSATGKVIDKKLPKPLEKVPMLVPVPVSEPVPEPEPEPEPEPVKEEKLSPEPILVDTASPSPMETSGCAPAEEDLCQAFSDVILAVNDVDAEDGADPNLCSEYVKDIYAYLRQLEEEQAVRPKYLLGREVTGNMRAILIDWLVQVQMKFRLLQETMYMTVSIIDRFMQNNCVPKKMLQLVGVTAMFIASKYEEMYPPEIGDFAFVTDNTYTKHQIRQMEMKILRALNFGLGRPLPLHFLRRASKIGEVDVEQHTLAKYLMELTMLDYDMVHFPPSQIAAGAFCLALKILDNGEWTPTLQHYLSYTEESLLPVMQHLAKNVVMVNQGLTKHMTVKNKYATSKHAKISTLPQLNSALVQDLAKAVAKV

Consider `O=c1cc(-c2ccc(O)c(O)c2)oc2cc(O)cc(O)c12` [Luteolin, 3′,4′,5,7-tetrahydroxyflavone], for which the Kd was about 36.7 µM.

Broadly, the Kd is the constant that tells how readily two partners part at equilibrium. A lower Kd goes with higher affinity.
